According to ChEMBL document CHEMBL1201862, “PubChem BioAssay data set” (2004):
The source made the active and inactive calls.

How the values were obtained:
[1] = target: DNA dC->dU-editing enzyme APOBEC-3G (Homo sapiens, UniProt Q9HC16); assay: Dose Response confirmation of small molecule APOBEC3G DNA Deaminase Inhibitors via a fluorescence-based single-stranded DNA deaminase assay. [Related pubchem assays (depositor defined):AID493012, AID493028]; type: functional
[2] = target: Peroxisome proliferator-activated receptor gamma/Nuclear receptor coactivator 2 (Homo sapiens, UniProt P37231); type: functional;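 also: agonist potency for raising coactivator recruitment to the receptor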
Chain of Peroxisome proliferator-activated receptor gamma/Nuclear receptor coactivator 2 (P37231 whole entry): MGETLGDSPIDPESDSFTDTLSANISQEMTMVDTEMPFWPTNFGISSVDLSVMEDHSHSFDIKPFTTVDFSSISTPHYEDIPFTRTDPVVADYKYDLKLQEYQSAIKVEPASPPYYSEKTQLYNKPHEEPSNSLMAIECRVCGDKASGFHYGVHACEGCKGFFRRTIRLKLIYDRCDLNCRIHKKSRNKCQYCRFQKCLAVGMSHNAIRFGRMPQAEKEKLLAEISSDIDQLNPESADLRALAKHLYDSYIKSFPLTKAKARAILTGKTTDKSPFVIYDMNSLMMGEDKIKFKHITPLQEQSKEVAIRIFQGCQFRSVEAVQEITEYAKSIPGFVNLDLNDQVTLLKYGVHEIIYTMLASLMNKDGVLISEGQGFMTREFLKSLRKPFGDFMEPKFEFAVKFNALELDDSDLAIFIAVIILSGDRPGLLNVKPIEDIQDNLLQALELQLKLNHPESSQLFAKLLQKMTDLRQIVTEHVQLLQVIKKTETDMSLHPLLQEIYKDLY
Chain of Peroxisome proliferator-activated receptor gamma/Nuclear receptor coactivator 2 (Q15596 whole entry, further chain): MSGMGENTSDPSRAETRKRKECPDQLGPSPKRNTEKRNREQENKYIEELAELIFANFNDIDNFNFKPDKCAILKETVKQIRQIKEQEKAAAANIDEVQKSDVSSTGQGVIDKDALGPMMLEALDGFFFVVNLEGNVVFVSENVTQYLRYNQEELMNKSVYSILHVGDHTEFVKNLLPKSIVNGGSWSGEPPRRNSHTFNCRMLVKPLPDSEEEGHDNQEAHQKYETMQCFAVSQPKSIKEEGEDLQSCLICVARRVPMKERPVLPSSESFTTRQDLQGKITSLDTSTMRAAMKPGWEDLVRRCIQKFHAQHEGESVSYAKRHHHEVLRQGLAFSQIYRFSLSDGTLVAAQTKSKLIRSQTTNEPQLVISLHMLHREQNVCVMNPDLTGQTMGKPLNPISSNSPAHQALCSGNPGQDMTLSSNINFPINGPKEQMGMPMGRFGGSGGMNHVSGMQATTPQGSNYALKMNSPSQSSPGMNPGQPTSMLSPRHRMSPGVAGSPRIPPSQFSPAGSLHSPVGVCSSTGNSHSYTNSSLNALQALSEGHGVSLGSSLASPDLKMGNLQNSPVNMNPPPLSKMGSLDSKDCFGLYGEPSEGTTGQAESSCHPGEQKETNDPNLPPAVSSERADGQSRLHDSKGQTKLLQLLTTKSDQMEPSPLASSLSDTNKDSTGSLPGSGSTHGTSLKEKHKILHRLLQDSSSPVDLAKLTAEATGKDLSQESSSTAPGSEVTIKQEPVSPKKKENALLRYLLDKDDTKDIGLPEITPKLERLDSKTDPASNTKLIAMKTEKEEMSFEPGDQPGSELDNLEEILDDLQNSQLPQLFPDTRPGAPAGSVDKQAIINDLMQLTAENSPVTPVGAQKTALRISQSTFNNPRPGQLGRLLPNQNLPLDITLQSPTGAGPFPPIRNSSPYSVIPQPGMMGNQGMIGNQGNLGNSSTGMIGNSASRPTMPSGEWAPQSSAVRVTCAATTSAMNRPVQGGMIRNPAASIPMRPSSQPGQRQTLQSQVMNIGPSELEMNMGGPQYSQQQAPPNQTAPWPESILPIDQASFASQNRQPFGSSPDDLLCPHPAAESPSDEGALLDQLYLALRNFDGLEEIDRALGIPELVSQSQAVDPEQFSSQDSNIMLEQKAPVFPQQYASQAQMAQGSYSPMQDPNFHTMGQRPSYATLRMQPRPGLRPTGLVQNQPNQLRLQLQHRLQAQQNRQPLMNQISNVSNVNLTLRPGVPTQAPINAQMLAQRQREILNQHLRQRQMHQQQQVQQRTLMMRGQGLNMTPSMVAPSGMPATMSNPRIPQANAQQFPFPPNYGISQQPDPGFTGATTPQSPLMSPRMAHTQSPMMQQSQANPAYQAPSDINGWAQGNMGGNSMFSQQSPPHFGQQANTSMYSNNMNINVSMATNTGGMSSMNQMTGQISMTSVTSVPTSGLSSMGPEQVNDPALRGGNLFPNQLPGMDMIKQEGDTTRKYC

[3] = target: Peroxisome proliferator-activated receptor gamma/Nuclear receptor coactivator 1 (Homo sapiens, UniProt P37231); type: functional;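 also: agonist potency as compounds enhance coactivator SRC-1 recruitment to PPARgamma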
Chain of Peroxisome proliferator-activated receptor gamma/Nuclear receptor coactivator 1 (P37231 whole entry): as the sequence (P37231 whole entry) above
Chain of Peroxisome proliferator-activated receptor gamma/Nuclear receptor coactivator 1 (Q15788 whole entry, further chain): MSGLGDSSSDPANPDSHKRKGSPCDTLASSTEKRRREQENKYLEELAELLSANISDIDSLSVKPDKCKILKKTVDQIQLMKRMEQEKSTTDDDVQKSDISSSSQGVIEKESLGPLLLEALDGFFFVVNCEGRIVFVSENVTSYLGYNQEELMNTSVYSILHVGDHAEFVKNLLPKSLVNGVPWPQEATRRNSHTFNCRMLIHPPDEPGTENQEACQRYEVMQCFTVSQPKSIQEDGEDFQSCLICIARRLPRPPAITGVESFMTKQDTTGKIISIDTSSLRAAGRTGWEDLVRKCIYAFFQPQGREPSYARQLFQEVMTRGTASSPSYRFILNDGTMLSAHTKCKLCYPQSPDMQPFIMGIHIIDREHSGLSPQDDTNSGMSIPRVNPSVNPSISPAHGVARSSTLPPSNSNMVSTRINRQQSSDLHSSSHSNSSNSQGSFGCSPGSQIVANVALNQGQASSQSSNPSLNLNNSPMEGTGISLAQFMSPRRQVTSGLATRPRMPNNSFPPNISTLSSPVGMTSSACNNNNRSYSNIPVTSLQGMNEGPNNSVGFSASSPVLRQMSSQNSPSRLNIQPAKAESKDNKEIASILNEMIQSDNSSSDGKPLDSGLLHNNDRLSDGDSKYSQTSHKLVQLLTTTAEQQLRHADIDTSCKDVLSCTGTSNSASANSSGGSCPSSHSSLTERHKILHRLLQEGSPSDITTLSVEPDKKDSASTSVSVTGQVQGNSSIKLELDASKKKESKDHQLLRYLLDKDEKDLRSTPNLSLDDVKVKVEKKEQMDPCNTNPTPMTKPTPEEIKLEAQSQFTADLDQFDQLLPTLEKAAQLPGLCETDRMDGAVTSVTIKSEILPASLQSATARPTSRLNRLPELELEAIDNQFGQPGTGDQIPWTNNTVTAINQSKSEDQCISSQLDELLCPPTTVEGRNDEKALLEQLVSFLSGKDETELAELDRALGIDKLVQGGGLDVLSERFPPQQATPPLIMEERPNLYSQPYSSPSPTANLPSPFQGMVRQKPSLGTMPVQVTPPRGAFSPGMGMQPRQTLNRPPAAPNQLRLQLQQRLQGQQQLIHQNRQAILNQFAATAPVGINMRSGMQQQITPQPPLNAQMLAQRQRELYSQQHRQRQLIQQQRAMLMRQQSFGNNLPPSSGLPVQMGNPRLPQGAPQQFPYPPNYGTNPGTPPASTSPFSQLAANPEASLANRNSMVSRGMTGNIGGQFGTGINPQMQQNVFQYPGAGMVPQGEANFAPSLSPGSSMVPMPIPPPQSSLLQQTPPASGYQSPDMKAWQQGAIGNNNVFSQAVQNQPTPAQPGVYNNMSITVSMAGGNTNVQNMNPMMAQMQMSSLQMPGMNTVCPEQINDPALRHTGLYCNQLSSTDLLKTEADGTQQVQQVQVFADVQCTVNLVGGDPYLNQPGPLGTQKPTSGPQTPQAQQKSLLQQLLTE

[4] = target: Peroxisome proliferator-activated receptor gamma/Nuclear receptor coactivator 3 (Homo sapiens, UniProt P37231); type: functional;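 also: agonist potency for raising coactivator recruitment to the receptor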
[5] = cells; type: functional, cell-based
[6] = cells; type: functional, cell-based; remark: listed apart in the source
[7] = target: T1, CAAX prenyl protease 2 (Saccharomyces cerevisiae S288c, UniProt Q03530); type: biochemical
T1 sequence (Q03530 whole entry): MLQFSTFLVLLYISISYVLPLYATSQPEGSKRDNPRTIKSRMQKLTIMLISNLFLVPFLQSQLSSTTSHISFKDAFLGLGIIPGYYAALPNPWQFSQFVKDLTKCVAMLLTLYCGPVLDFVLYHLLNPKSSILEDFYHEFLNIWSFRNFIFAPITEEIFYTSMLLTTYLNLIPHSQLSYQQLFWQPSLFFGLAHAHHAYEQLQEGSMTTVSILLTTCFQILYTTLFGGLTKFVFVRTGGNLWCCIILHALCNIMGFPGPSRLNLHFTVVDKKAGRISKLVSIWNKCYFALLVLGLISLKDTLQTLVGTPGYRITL

[8] = target: Melanocortin receptor 4 (Homo sapiens, UniProt P32245); type: functional, cell-based;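 also: Cell-based assay with luminescence read-out, confirmatory dose-response testing for agonist activity of biased ligands at MC4R; human U2OS cells with tagged receptor and beta-arrestin; potency of agonists that increase receptor coupling to beta-arrestin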
Chain of Melanocortin receptor 4 (P32245 whole entry): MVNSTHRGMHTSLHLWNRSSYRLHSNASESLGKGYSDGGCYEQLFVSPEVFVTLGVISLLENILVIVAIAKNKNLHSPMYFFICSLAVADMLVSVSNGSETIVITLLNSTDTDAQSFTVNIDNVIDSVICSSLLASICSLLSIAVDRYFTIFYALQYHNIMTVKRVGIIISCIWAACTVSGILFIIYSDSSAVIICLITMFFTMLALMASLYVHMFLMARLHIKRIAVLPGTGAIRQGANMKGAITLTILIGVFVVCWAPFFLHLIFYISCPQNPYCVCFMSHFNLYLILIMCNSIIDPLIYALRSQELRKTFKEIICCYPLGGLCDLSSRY

[9] = target: 26S proteasome non-ATPase regulatory subunit 14 (Homo sapiens, UniProt O00487); assay: inhibition of proteasome subunit RPN11 – biochemical, fluorescence polarization, uHTS hits, confirmation (AID 602368); type: functional
Chain of 26S proteasome non-ATPase regulatory subunit 14 (O00487 whole entry): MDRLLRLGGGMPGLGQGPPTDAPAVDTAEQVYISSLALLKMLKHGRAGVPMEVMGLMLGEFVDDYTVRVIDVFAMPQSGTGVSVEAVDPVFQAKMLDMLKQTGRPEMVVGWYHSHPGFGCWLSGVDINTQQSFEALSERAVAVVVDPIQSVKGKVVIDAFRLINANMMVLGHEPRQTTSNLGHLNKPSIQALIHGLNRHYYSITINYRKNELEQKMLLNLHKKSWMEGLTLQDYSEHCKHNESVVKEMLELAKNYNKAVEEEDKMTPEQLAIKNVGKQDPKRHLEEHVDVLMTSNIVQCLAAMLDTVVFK

[10] = target: 72 kDa type IV collagenase (Homo sapiens, UniProt P08253); assay: Dose Response validation of uHTS RPN11 inhibitor hits using a MMP-2 Fluorescence assay.; type: functional
[11] = target: Prothrombin (Bos taurus, UniProt P00735); assay: thrombin inhibition, dose response, biochemical, fluorescence polarization, uHTS hits (AID 602369); type: functional
[12] = HEp-2 cell cytotoxicity, dose response, cytotoxicity control for RSV inhibitor project, HTS (AID 2410); type: functional; settings: human respiratory syncytial virus
[13] = target: T2, RNA-binding protein pos-1 (Caenorhabditis elegans, UniProt G5EF15); assay: inhibitors of POS-1/mex-3 RNA binding, dose response, biochemical, fluorescence polarization (AID 1964);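 also: purified POS-1 fused to maltose binding protein made in E. coli; potency of compounds blocking POS-1 binding to fluorescent RNA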
T2 sequence (G5EF15 whole entry): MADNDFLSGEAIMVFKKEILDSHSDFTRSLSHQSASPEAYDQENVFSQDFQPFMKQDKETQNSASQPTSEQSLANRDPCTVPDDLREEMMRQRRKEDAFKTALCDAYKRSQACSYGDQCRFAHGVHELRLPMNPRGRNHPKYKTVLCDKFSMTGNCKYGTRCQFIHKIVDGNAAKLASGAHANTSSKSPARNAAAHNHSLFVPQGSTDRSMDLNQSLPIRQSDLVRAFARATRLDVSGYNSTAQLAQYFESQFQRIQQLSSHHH

[14] = target: T3, Zinc finger protein mex-5 (Caenorhabditis elegans, UniProt Q9XUB2); assay: MEX-5/TCR-2 RNA interaction inhibitors, dose response, biochemical, C. elegans, fluorescence polarization (AID 1960)
T3 sequence (Q9XUB2 whole entry): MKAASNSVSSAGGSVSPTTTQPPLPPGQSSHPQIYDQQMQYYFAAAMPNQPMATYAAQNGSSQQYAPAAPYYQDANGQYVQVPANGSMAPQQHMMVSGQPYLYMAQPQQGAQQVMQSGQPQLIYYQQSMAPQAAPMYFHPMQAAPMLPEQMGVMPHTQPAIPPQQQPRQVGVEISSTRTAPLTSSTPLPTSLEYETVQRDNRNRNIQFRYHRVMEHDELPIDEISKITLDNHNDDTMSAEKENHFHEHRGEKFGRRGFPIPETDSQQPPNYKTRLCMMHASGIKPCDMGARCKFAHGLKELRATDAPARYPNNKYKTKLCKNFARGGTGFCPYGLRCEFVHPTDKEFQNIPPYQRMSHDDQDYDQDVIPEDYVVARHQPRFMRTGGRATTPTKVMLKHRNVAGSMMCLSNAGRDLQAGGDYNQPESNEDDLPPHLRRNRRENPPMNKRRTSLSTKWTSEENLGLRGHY

[15] = target: T4, Endoribonuclease toxin MazF (Escherichia coli K-12, UniProt P0AE70); assay: MazF toxin RNase activators, dose response, biochemical, fluorescence, single-stranded RNA substrate, uHTS hits (AID 588481); type: functional
T4 sequence (P0AE70 whole entry): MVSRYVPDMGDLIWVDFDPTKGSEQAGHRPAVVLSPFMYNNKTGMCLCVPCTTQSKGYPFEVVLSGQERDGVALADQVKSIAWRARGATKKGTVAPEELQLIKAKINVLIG

[16] = target: T4, Endoribonuclease toxin MazF; assay: fluorescent RNA oligo signal without MazF, dose response, counter-screen for MazEF activator project, biochemical, fluorescence, single-stranded RNase substrate (AID 588502); type: functional
[17] = A cytotoxicity screen of small molecule inhibitors of the PhoP region in Salmonella typhi identified in the primary screen. [Related pubchem assays: 1850, 1864, 1985 ]; type: functional
[18] = target: T5, Mannose-6-phosphate isomerase (Homo sapiens, UniProt P34949); assay: human PMI inhibitors, high substrate, primary screen, biochemical, fluorescence intensity, high mannose 6-phosphate (AID 1220)
T5 sequence (P34949 whole entry): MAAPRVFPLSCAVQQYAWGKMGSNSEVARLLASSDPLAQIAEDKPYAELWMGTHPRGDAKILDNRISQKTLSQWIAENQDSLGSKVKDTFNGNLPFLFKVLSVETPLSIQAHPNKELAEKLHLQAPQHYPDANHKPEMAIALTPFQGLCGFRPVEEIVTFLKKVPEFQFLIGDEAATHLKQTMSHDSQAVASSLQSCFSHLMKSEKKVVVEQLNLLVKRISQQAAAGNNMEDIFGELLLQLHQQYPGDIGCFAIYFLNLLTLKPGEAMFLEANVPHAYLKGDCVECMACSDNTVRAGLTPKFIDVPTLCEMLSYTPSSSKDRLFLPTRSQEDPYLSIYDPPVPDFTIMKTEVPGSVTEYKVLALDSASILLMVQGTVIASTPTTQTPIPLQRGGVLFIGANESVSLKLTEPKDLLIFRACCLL

Chain of DNA dC->dU-editing enzyme APOBEC-3G (Q9HC16 whole entry): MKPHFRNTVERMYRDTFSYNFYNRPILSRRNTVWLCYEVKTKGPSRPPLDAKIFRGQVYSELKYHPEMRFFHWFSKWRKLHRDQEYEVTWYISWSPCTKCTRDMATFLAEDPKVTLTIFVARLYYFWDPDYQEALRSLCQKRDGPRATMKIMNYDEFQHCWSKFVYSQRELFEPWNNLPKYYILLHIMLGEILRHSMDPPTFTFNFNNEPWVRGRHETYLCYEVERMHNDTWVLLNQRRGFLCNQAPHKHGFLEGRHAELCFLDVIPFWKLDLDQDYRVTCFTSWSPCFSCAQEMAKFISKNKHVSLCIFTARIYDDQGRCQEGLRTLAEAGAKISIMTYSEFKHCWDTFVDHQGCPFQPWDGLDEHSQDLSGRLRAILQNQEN

With Cc1cc(C)c(C#N)c(=N)o1 the IC50 [1] was 37.4 µM (active).
For Cc1nnc(SCc2ccccc2)n1N, the EC50 [2] was > 79.4 µM (not active), the EC50 [3] was > 79.4 µM (not active) and the EC50 [4] was > 79.4 µM (not active).
In the case of Cc1cccc(N(CC(=O)N2CCN(c3ccc(F)cc3)CC2)S(C)(=O)=O)c1C, the EC50 [2] is reported as > 79.4 µM (not active), the EC50 [3] is reported as > 79.4 µM (not active) and the EC50 [4] is reported as > 79.4 µM (not active).
With O=C(Nc1cccc(-c2cn3ccccc3n2)c1)C1CC1 the EC50 [5] was > 350 µM (not active), the EC50 [6] was > 350 µM (not active) and the AC50 [7] was 31.9 µM (active).
For C1COCCO1.Cc1cc(C)c2nc(Nc3nc(O)cc(-c4ccccc4)n3)nc(C)c2c1, the EC50 [8] was > 89.2 µM (inactive).
For CCOc1ccc(C(=O)CCC(=O)N2CCN(c3ncccn3)CC2)cc1, the IC50 [9] was 38.6 µM (active), the IC50 [10] was 83.5 µM (active) and the IC50 [11] was 34.3 µM (active).
In the case of COc1cccc(C(=O)Nc2nnc(SCC(=O)NC3CCCC3)s2)c1, the AC50 [7] is reported as 52.3 µM (active).
With CCOC(=O)c1cc(-c2ccccc2)sc1NC(=O)C(C)Sc1nnnn1C (centres undefined) the CC50 [12] was > 50 µM (active) and the AC50 [7] was 7.54 µM (active).
In the case of Oc1nc2ccccc2nc1/C=C/c1ccc(F)cc1, the EC50 [13] is reported as 41.9 µM (inconclusive), the EC50 [14] is reported as > 300 µM (not active) and the EC50 [15] is reported as 15.6 µM (active). The EC50 [16] was > 99 µM (inactive).
In the case of CCS(=O)(=O)N1CCN(C2CCC(c3ccccc3)CC2)CC1 (centres undefined), the EC50 [2] is reported as > 79.4 µM (not active), the EC50 [3] is reported as > 79.4 µM (not active) and the EC50 [17] is reported as > 50 µM (active). For the same compound, the EC50 [4] was > 79.4 µM (not active).
In the case of O=C(c1ccc(COc2ccc(Br)cc2)o1)N1N=C(C(F)F)CC1(O)C(F)F (centres undefined), the EC50 [8] is reported as > 89.2 µM (inactive).
With COCc1n[nH]c2c1C(c1cc(OC)c(O)c(OC)c1)C(C#N)=C(N)O2 (centres undefined) the IC50 [18] was > 50 µM (not active), the EC50 [15] was > 99 µM (inactive) and the EC50 [16] was > 99 µM (inactive).
